Laboratory results from PubChem BioAssay AID248 (DTP/NCI, 2004).
Inconclusive results and toxic doses are left out. Rule as the data show it: active = T/C of 150% or more; inactive = T/C below 125%.

Tested on: L1210 leukemia ip in BDF1 mice, survival T/C
Test: NCI In Vivo Anticancer Drug Screen. Data for tumor model L1210 Leukemia (intraperitoneal) in B6D2F1 (BDF1) mice
Conditions: endpoint: mean survival time, higher = longer survival
In short: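 Transplantable tumor model; survival measured in treated vs vehicle control mice. Value = treated/control.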

[1] = dose: 100.0 mg/kg/injection, schedule: Q01DX009 (ip), vehicle: Klucel (hydroxypropylcellulose) (HPC)
[2] = dose: 200.0 mg/kg/injection, schedule: Q01DX009 (ip), vehicle: Klucel (hydroxypropylcellulose) (HPC)
[3] = dose: 400.0 mg/kg/injection, schedule: Q01DX009 (ip), vehicle: Klucel (hydroxypropylcellulose) (HPC)

Measured: T/C

CC(CC#N)c1ccc[nH]1 (centres undefined)
inactive: dose: 5.0 mg/kg/injection, schedule: Q01DX001 (ip), vehicle: carboxymethylcellulose (CMC) 115 % of control | dose: 10.0 mg/kg/injection, schedule: Q01DX001 (ip), vehicle: carboxymethylcellulose (CMC) 111 % of control | dose: 20.0 mg/kg/injection, schedule: Q01DX001 (ip), vehicle: carboxymethylcellulose (CMC) 117 % of control | dose: 40.0 mg/kg/injection, schedule: Q01DX001 (ip), vehicle: carboxymethylcellulose (CMC) 113 % of control | dose: 50.0 mg/kg/injection, schedule: Q01DX001 (ip), vehicle: carboxymethylcellulose (CMC) 109 % of control | dose: 80.0 mg/kg/injection, schedule: Q01DX001 (ip), vehicle: carboxymethylcellulose (CMC) 96 % of control | dose: 100.0 mg/kg/injection, schedule: Q01DX001 (ip), vehicle: carboxymethylcellulose (CMC) 102 % of control | dose: 200.0 mg/kg/injection, schedule: Q01DX001 (ip), vehicle: carboxymethylcellulose (CMC) 107 % of control

CN(C)c1ccc(/C=C/C=N/N=C/c2ccccc2O)cc1
inactive: dose: 75.0 mg/kg/injection, schedule: Q01DX001 (ip), vehicle: other 89 % of control | dose: 150.0 mg/kg/injection, schedule: Q01DX001 (ip), vehicle: other 94 % of control

CC(C)(C)C1COP(=O)(OCc2ccccc2)OC1 (centres undefined)
inactive: dose: 100.0 mg/kg/injection, schedule: Q04DX003 (ip), vehicle: other 92 % of control | dose: 200.0 mg/kg/injection, schedule: Q04DX003 (ip), vehicle: other 91 % of control

CCCCCN(CCCCC)C(=S)[S-].CCCCCN(CCCCC)C(=S)[S-].[Zn]
inactive: dose: 100.0 mg/kg/injection, schedule: Q04DX003 (ip), vehicle: carboxymethylcellulose (CMC) 94 % of control | dose: 200.0 mg/kg/injection, schedule: Q04DX003 (ip), vehicle: carboxymethylcellulose (CMC) 100 % of control | dose: 400.0 mg/kg/injection, schedule: Q04DX003 (ip), vehicle: carboxymethylcellulose (CMC) 91 % of control

CCN(c1ccccc1)c1ccc([N+](=O)[O-])c2no[n+]([O-])c12
inactive: dose: 20.0 mg/kg/injection, schedule: Q04DX003 (ip), vehicle: saline with Tween-80 100 % of control | dose: 40.0 mg/kg/injection, schedule: Q04DX003 (ip), vehicle: saline with Tween-80 96 % of control

COC(=O)Cc1oc(=O)n(-c2ccccc2)c(=O)c1C(=O)OC
inactive: dose: 12.5 mg/kg/injection, schedule: Q04DX002 (ip), vehicle: gum acacia 94 % of control | dose: 25.0 mg/kg/injection, schedule: Q04DX002 (ip), vehicle: gum acacia 116 % of control | dose: 50.0 mg/kg/injection, schedule: Q04DX002 (ip), vehicle: gum acacia 108 % of control

Cc1ccc(NC(=O)NCc2ccco2)cc1
inactive: dose: 222.0 mg/kg/injection, schedule: Q01DX Z (ip), vehicle: methylcellulose (MC) 94 % of control | dose: 333.0 mg/kg/injection, schedule: Q01DX Z (ip), vehicle: methylcellulose (MC) 100 % of control | dose: 500.0 mg/kg/injection, schedule: Q01DX Z (ip), vehicle: methylcellulose (MC) 94 % of control

ClCc1ccc2ccc3cccc4ccc1c2c34
inactive: dose: 5.0 mg/kg/injection, schedule: Q01DX009 (ip), vehicle: carboxymethylcellulose (CMC) 109 % of control | dose: 10.0 mg/kg/injection, schedule: Q01DX009 (ip), vehicle: carboxymethylcellulose (CMC) 110 % of control | dose: 12.5 mg/kg/injection, schedule: Q01DX009 (ip), vehicle: carboxymethylcellulose (CMC) 109 % of control | dose: 20.0 mg/kg/injection, schedule: Q01DX009 (ip), vehicle: carboxymethylcellulose (CMC) 121 % of control | dose: 25.0 mg/kg/injection, schedule: Q01DX009 (ip), vehicle: carboxymethylcellulose (CMC) 97 % of control

CCCCC(CC)C1OCCS1 (centres undefined)
inactive: dose: 100.0 mg/kg/injection, schedule: Q01DX009 (ip), vehicle: saline 96 % of control | dose: 100.0 mg/kg/injection, schedule: Q04DX002 (ip), vehicle: saline 96 % of control | dose: 200.0 mg/kg/injection, schedule: Q01DX009 (ip), vehicle: saline 107 % of control | dose: 200.0 mg/kg/injection, schedule: Q04DX002 (ip), vehicle: saline 92 % of control | dose: 400.0 mg/kg/injection, schedule: Q01DX009 (ip), vehicle: saline 104 % of control | dose: 400.0 mg/kg/injection, schedule: Q04DX002 (ip), vehicle: saline 99 % of control

O=C1C(I)=CC(=C(c2cc(I)c(O)c(I)c2)c2ccccc2C(=O)O)C=C1I
inactive: [1] 94 % of control | dose: 100.0 mg/kg/injection, schedule: Q04DX003 (ip), vehicle: Klucel (hydroxypropylcellulose) (HPC) 98 % of control | [2] 89 % of control | dose: 200.0 mg/kg/injection, schedule: Q04DX003 (ip), vehicle: Klucel (hydroxypropylcellulose) (HPC) 98 % of control | [3] 98 % of control | dose: 400.0 mg/kg/injection, schedule: Q04DX003 (ip), vehicle: Klucel (hydroxypropylcellulose) (HPC) 98 % of control

Cn1c(Cl)c(/C=N/NC(N)=S)c2ccccc21
inactive: dose: 50.0 mg/kg/injection, schedule: Q04DX002 (ip), vehicle: Klucel (hydroxypropylcellulose) (HPC) 91 % of control | dose: 100.0 mg/kg/injection, schedule: Q04DX002 (ip), vehicle: Klucel (hydroxypropylcellulose) (HPC) 91 % of control | dose: 200.0 mg/kg/injection, schedule: Q04DX002 (ip), vehicle: Klucel (hydroxypropylcellulose) (HPC) 87 % of control

CC(C)=CCc1cccc(C)c1
inactive: dose: 50.0 mg/kg/injection, schedule: Q01DX009 (ip), vehicle: saline with Tween-80 94 % of control | dose: 100.0 mg/kg/injection, schedule: Q01DX009 (ip), vehicle: saline with Tween-80 98 % of control | dose: 200.0 mg/kg/injection, schedule: Q01DX009 (ip), vehicle: saline with Tween-80 105 % of control

Nc1nc(-c2ccccc2)[nH]c(=O)n1
inactive: [1] 100 % of control | [2] 91 % of control | [3] 93 % of control
